# Source: ChEMBL document CHEMBL4507318, “Data for DCP probe BAY-985” (2021)
# Columns and labels:
# [1] = biological target: Serine/threonine-protein kinase Nek6 (Homo sapiens) (UniProt Q9HC98)
# [2] = biological target: 5-hydroxytryptamine receptor 5A (Homo sapiens) (UniProt P47898); settings: Compound concentration 10.0 uM
# [3] = biological target: Phosphorylase b kinase regulatory subunit alpha, liver isoform (Homo sapiens) (UniProt P46019)
# [4] = biological target: Phosphatidylinositol 4,5-bisphosphate 3-kinase catalytic subunit alpha isoform (Homo sapiens) (UniProt P42336)
# [5] = biological target: Death-associated protein kinase 1 (Homo sapiens) (UniProt P53355)
# [6] = biological target: Interleukin-1 receptor-associated kinase 1 (Homo sapiens) (UniProt P51617)
# [7] = biological target: Tyrosine-protein kinase TXK (Homo sapiens) (UniProt P42681)
# [8] = biological target: Casein kinase I isoform gamma-1 (Homo sapiens) (UniProt Q9HCP0)
# [9] = biological target: Death-associated protein kinase 3 (Homo sapiens) (UniProt O43293)
# [10] = biological target: Ribosomal protein S6 kinase alpha-6 (Homo sapiens) (UniProt Q9UK32)
# Ribosomal protein S6 kinase alpha-6 (Homo sapiens), sequence (Q9UK32 whole entry): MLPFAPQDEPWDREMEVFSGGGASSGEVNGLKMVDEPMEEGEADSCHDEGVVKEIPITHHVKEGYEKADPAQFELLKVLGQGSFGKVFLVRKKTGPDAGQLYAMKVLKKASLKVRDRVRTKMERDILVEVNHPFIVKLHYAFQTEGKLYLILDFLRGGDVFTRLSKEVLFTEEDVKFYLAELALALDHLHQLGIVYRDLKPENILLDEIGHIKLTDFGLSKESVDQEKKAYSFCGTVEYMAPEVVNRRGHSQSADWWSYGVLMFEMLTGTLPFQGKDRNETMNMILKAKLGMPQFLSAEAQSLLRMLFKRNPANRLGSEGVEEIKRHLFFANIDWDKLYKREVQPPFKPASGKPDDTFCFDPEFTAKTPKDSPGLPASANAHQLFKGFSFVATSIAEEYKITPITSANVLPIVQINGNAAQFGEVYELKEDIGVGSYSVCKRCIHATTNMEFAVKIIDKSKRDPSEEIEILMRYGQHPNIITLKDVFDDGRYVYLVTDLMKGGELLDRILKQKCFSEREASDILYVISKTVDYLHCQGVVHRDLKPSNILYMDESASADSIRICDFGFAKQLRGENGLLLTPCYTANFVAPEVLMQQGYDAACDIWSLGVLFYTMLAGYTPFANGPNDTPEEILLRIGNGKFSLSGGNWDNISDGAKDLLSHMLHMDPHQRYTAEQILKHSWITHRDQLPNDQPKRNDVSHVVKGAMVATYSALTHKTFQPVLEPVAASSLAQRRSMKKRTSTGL
# [11] = biological target: Serine/threonine-protein kinase 32A (Homo sapiens) (UniProt Q8WU08)
# [12] = tested on: Phosphatidylinositol 4,5-bisphosphate 3-kinase catalytic subunit alpha isoform (Homo sapiens), P42336 [H1047Y]
# [13] = tested on: Epidermal growth factor receptor (Homo sapiens), P00533 [L861Q]
# [14] = biological target: Angiopoietin-1 receptor (Homo sapiens) (UniProt Q02763)
# [15] = tested on: Proto-oncogene tyrosine-protein kinase receptor Ret (Homo sapiens), P07949 [M918T]
# [16] = biological target: Myosin-IIIb (Homo sapiens) (UniProt Q8WXR4)
# [17] = biological target: Serine/threonine-protein kinase D1 (Homo sapiens) (UniProt Q15139)
# [18] = biological target: Serine/threonine-protein kinase tousled-like 2 (Homo sapiens) (UniProt Q86UE8)
# [19] = biological target: Dual specificity protein kinase TTK (Homo sapiens) (UniProt P33981)
# [20] = biological target: Tyrosine-protein kinase JAK1 (Homo sapiens) (UniProt P23458)
# Tyrosine-protein kinase JAK1 (Homo sapiens), sequence (P23458 whole entry): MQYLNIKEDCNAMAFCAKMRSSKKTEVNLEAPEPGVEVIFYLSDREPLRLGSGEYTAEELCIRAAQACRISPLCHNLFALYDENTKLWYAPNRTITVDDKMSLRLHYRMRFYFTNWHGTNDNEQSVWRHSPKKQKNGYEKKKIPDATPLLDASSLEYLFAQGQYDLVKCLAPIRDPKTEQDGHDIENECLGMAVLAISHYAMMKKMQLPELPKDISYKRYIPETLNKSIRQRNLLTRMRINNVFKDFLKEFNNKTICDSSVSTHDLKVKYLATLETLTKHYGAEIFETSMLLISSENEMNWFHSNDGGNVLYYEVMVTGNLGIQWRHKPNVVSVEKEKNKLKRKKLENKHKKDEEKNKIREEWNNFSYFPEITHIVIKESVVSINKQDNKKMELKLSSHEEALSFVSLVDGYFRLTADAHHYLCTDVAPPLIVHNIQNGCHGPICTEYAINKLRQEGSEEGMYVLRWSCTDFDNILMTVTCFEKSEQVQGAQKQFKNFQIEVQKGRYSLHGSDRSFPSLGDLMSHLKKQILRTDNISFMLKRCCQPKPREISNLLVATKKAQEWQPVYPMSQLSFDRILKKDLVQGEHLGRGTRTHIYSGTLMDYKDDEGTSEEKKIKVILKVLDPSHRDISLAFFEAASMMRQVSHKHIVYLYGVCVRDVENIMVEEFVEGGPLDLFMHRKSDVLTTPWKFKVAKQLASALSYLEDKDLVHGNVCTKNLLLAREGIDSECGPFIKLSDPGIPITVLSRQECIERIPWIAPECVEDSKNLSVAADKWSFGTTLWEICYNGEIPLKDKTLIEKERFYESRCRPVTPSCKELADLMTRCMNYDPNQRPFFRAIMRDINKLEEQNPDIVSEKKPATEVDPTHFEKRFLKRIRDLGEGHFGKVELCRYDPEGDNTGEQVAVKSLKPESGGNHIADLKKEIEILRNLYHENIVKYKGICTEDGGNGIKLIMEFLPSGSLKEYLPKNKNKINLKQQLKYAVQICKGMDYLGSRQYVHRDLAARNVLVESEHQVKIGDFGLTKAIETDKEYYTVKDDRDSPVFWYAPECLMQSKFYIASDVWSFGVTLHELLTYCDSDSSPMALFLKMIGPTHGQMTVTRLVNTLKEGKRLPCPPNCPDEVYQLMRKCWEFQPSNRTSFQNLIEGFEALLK
# [21] = biological target: Tyrosine-protein kinase ABL1 (Homo sapiens) (UniProt P00519)
# Tyrosine-protein kinase ABL1 (Homo sapiens), sequence (P00519 whole entry): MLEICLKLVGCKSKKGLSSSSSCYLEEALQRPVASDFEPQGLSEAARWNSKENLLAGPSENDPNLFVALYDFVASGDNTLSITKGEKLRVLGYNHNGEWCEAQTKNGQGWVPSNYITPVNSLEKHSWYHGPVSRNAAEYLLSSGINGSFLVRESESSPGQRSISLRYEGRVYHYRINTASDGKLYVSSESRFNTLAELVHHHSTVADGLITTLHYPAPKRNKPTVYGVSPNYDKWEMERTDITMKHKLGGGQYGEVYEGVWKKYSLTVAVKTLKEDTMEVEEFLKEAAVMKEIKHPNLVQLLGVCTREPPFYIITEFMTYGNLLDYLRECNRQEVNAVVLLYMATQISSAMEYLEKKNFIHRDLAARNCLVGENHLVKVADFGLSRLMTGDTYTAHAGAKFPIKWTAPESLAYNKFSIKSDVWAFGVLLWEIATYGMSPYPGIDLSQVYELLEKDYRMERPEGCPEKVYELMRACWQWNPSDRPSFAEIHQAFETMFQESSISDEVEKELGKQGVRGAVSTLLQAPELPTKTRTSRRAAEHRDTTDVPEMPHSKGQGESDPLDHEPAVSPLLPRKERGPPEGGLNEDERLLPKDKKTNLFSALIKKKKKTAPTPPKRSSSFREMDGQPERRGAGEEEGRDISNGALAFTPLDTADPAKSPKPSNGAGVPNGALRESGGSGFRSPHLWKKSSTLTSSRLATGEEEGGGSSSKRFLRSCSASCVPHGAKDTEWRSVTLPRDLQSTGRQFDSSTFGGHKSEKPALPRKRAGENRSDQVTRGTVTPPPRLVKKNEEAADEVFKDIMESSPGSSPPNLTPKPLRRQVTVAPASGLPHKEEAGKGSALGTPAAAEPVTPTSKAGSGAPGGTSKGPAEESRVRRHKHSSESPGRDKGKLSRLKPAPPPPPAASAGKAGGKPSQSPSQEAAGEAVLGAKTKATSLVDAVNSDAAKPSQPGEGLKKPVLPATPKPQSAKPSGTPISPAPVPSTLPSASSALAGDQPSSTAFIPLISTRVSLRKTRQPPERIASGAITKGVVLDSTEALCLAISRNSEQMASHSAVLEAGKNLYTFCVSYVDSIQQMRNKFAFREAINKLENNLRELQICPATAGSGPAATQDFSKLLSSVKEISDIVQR
# [22] = biological target: Dual serine/threonine and tyrosine protein kinase (Homo sapiens) (UniProt Q6XUX3)
# [23] = biological target: Atypical kinase COQ8A, mitochondrial (Homo sapiens) (UniProt Q8NI60)
# [24] = biological target: Serine/threonine-protein kinase MRCK beta (Homo sapiens) (UniProt Q9Y5S2)
# [25] = biological target: Ankyrin repeat and protein kinase domain-containing protein 1 (Homo sapiens) (UniProt Q8NFD2)
# Ankyrin repeat and protein kinase domain-containing protein 1 (Homo sapiens), sequence (Q8NFD2 whole entry, the tested form may be a part): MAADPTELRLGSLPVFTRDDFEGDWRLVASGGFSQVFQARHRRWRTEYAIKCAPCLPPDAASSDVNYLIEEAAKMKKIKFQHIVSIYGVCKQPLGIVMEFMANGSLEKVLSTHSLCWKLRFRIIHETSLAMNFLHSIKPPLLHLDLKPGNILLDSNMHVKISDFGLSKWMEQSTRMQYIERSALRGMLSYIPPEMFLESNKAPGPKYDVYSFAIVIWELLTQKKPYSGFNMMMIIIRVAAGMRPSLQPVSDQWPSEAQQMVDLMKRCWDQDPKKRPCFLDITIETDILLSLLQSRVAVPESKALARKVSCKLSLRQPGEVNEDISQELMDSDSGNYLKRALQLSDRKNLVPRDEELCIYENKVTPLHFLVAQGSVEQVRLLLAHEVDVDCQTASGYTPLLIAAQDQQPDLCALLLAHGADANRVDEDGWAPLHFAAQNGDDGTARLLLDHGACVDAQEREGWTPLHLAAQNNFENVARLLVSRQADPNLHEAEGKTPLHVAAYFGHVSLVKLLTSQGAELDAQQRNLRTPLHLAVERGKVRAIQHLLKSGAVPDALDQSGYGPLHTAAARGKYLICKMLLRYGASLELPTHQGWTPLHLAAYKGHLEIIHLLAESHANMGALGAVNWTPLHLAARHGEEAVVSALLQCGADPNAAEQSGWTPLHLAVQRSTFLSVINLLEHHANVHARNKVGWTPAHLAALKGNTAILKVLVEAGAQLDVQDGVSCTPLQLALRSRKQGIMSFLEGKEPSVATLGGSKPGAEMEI
# [26] = biological target: Mitogen-activated protein kinase 14 (Homo sapiens) (UniProt Q16539)
# [27] = tested on: Proto-oncogene tyrosine-protein kinase receptor Ret (Homo sapiens), P07949 [V804L]
# [28] = biological target: Serine/threonine-protein kinase 4 (Homo sapiens) (UniProt Q13043)
# [29] = biological target: Serine/threonine-protein kinase TAO3 (Homo sapiens) (UniProt Q9H2K8)
# [30] = biological target: Mitogen-activated protein kinase kinase kinase kinase 5 (Homo sapiens) (UniProt Q9Y4K4)
# [31] = biological target: Cyclin-dependent kinase 5 (Homo sapiens) (UniProt Q00535)
# [32] = biological target: Calcium/calmodulin-dependent protein kinase kinase 2 (Homo sapiens) (UniProt Q96RR4)
# [33] = biological target: Phosphatidylinositol 4-phosphate 3-kinase C2 domain-containing subunit beta (Homo sapiens) (UniProt O00750)
# [34] = biological target: Tyrosine-protein kinase ABL1 (Homo sapiens) (UniProt P00519); remark: listed apart in the source
# [35] = biological target: Serine/threonine-protein kinase ULK3 (Homo sapiens) (UniProt Q6PHR2)
# [36] = biological target: Serine/threonine-protein kinase ULK2 (Homo sapiens) (UniProt Q8IYT8)
# [37] = biological target: Serine/threonine-protein kinase PRP4 homolog (Homo sapiens) (UniProt Q13523)
# [38] = biological target: D(1A) dopamine receptor (Homo sapiens) (UniProt P21728); settings: Compound concentration 10.0 uM
# [39] = biological target: Serine/threonine-protein kinase MARK1 (Homo sapiens) (UniProt Q9P0L2)
# [40] = biological target: Serine/threonine-protein kinase WNK1 (Homo sapiens) (UniProt Q9H4A3)
# [41] = biological target: Serine/threonine-protein kinase 38-like (Homo sapiens) (UniProt Q9Y2H1)
# [42] = tested on: Tyrosine-protein kinase ABL1 (Homo sapiens), P00519 [F317L]
# Tyrosine-protein kinase ABL1 (Homo sapiens), P00519 [F317L], sequence (P00519 whole entry F317L): as the sequence (P00519 whole entry) above, with F317L counted along it
# [43] = biological target: Mitogen-activated protein kinase kinase kinase 1 (Homo sapiens) (UniProt Q13233)
# [44] = biological target: Mitogen-activated protein kinase kinase kinase 9 (Homo sapiens) (UniProt P80192)
# [45] = biological target: 5-hydroxytryptamine receptor 3A (Homo sapiens) (UniProt P46098); settings: Compound concentration 10.0 uM
# [46] = Compound concentration 1000.0 nM
# [47] = Compound concentration 100.0 nM
# Phosphorylase b kinase regulatory subunit alpha, liver isoform (Homo sapiens), sequence (P46019 whole entry, canonical isoform): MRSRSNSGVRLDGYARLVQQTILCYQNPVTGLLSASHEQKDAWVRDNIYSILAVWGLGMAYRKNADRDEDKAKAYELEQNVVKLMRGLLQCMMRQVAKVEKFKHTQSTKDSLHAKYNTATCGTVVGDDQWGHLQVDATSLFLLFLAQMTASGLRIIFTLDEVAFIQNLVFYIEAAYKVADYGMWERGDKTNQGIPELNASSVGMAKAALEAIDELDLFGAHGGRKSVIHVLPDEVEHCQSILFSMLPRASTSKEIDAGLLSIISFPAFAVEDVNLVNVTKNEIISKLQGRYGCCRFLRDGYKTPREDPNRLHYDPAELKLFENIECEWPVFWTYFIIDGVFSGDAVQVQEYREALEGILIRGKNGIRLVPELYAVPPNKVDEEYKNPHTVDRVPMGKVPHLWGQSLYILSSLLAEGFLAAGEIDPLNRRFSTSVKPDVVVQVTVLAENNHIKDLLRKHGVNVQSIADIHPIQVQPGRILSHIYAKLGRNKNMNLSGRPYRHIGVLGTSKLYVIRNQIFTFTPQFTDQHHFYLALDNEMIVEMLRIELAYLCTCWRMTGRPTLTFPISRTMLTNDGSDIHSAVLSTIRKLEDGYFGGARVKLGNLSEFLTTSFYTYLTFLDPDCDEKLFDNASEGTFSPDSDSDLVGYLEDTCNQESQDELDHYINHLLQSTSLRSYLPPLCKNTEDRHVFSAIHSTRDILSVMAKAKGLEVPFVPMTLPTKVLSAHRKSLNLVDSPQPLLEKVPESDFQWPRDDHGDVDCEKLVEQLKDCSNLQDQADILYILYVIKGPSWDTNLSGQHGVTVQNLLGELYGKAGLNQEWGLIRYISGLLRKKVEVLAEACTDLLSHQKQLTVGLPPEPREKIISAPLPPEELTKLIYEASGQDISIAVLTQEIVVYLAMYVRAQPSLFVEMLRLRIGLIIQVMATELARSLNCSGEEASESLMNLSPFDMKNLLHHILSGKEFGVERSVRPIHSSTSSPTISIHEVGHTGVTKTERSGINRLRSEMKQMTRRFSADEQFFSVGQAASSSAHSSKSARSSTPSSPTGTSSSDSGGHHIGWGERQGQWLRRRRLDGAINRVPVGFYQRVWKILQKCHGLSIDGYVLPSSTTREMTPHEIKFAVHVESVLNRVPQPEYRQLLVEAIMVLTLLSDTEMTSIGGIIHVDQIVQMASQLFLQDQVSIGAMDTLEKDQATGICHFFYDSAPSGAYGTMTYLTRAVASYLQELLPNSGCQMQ
structure (smiles),measurement,setting,value
CN(C)c1ncnc(-c2ccc3nc(Nc4cc(CN5CCN(C(=O)CC(F)(F)F)CC5)ccn4)[nH]c3c2)c1Cl [BAY-440],residual activity,[1]; [46],98%
same,inhibition,[2],23.6%
same,residual activity,[3]; [46],100%
same,residual activity,[4]; [46],100%
same,residual activity,[5]; [46],100%
same,residual activity,[6]; [46],44%
same,residual activity,[7]; [46],95%
same,residual activity,[8]; [46],76%
same,residual activity,[9]; [46],99%
same,residual activity,[10]; [46],81%
same,residual activity,[11]; [46],85%
same,residual activity,[12]; [46],74%
same,residual activity,[13]; [46],96%
same,residual activity,[14]; [46],87%
same,residual activity,[15]; [46],100%
same,residual activity,[16]; [46],100%
same,residual activity,[17]; [46],100%
same,residual activity,[18]; [46],100%
same,residual activity,[19]; [46],100%
same,residual activity,[20]; [46],68%
same,residual activity,[21]; [46],51%
same,residual activity,[22]; [46],95%
same,residual activity,[23]; [46],100%
same,residual activity,[24]; [46],96%
same,residual activity,[25]; [46],57%
same,residual activity,[26]; [46],100%
same,residual activity,[27]; [46],100%
same,residual activity,[28]; [46],95%
same,residual activity,[29]; [46],33%
same,residual activity,[30]; [46],100%
same,residual activity,[31]; [46],100%
same,residual activity,[32]; [46],88%
same,residual activity,[33]; [46],100%
same,residual activity,[34]; [46],26%
same,residual activity,[35]; [46],61%
same,residual activity,[36]; [46],64%
same,residual activity,[37]; [46],100%
same,inhibition,[38],23%
same,residual activity,[39]; [46],100%
same,residual activity,[40]; [46],86%
same,residual activity,[41]; [46],74%
same,residual activity,[42]; [46],29%
same,residual activity,[43]; [46],100%
same,residual activity,[44]; [46],90%
same,inhibition,[45],35.6%
C[C@H](c1ccnc(Nc2nc3ccc(-c4cc(N(C)C)ncn4)cc3[nH]2)c1)N1CCN(C(=O)CC(F)(F)F)CC1 [BAY-985],residual activity,[1]; [47],83%
same,inhibition,[2],11.9%
same,residual activity,[3]; [47],81%
same,residual activity,[4]; [47],100%
same,residual activity,[5]; [47],93%
same,residual activity,[6]; [47],100%
same,residual activity,[7]; [47],96%
same,residual activity,[8]; [47],100%
same,residual activity,[9]; [47],90%
same,residual activity,[10]; [47],56%
same,residual activity,[11]; [47],100%
same,residual activity,[12]; [47],100%
same,residual activity,[13]; [47],76%
same,residual activity,[14]; [47],99%
same,residual activity,[15]; [47],86%
same,residual activity,[16]; [47],100%
same,residual activity,[17]; [47],100%
same,residual activity,[18]; [47],99%
same,residual activity,[19]; [47],82%
same,residual activity,[20]; [47],100%
same,residual activity,[21]; [47],85%
same,residual activity,[22]; [47],100%
same,residual activity,[23]; [47],100%
same,residual activity,[24]; [47],100%
same,residual activity,[25]; [47],99%
same,residual activity,[26]; [47],100%
same,residual activity,[27]; [47],83%
same,residual activity,[28]; [47],100%
same,residual activity,[29]; [47],41%
same,residual activity,[30]; [47],96%
same,residual activity,[31]; [47],86%
same,residual activity,[32]; [47],77%
same,residual activity,[33]; [47],97%
same,residual activity,[34]; [47],89%
same,residual activity,[35]; [47],90%
same,residual activity,[36]; [47],100%
same,residual activity,[37]; [47],80%
same,inhibition,[38],1.63%
same,residual activity,[39]; [47],100%
same,residual activity,[40]; [47],100%
same,residual activity,[41]; [47],65%
same,residual activity,[42]; [47],100%
same,residual activity,[43]; [47],100%
same,residual activity,[44]; [47],100%
same,inhibition,[45],31.9%
